The structures appear in SMILES notation. Like-named read-outs stand apart in the source and are kept apart here.

The target of this assay is T1, cloned human dopamine D3 receptors (Homo sapiens, UniProt P35462).
T1 construct: expressed in transfected cells; membrane homogenate
Briefly: [N-Methyl-3H]Spiroperidol binding to cloned human dopamine D3 receptors (Protocol 1). In a few lines:
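Radioligand displacement with [N-methyl-3H]spiroperidol used a physiological-salt Tris buffer (0.05 M, pH 7.7; NaCl 120 mM, KCl 5 mM, CaCl2 2 mM, MgCl2 1 mM) and membranes of a high-expressing stable CHO clone carrying human D3. Total ligand concentration came from measured added CPM; 0.1% ascorbic acid was optional for oxidizable compounds.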

[1] abbreviates: the 13th table, unit inferred, read-out: D3Ki.
Setting [2] is: the 14th table, read-out: D3 Ki.

T1 sequence (P35462 whole entry): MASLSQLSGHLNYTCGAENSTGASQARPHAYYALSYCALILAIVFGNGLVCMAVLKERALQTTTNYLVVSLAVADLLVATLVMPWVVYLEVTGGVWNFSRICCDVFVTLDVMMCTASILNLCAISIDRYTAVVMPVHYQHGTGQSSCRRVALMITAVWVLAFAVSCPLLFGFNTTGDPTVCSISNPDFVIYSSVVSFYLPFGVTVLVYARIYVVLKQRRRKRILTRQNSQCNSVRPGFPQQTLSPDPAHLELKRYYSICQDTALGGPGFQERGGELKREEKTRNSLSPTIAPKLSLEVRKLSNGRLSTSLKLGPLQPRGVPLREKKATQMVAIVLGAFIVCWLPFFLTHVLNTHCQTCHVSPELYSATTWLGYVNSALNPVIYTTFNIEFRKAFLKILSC

Regarding `O=C(NCCCCN1CCCN(c2csc3cc(F)ccc23)CC1)c1ccc(C(F)(F)F)cc1` [S9818147], under setting [1], the Ki amounted to 30.8 nM.
`O=C(NCCCCCN1CCCN(c2csc3cc(F)ccc23)CC1)c1ccc(OC(F)(F)F)cc1` [S9894488]: under setting [1], the Ki amounted to 23.8 nM.
For the compound `O=C(NCCCCN1CCC(c2noc3ccsc23)CC1)c1ccc2ccccc2c1` [compound 81514], the Ki under setting [1] amounted to 191 nM.
As to `COc1cc(OC)cc(C(=O)NCCCCN2CCCN(c3csc4cc(F)ccc34)CC2)c1` [compound 82251], the Ki under setting [1] is 10.9 nM.
Turning to `CC(C)C(=O)NCCCCN1CCN(c2csc3cc(C(F)(F)F)ccc23)CC1` [compound 811700], the Ki (read-out: D3K1) amounted to 42.1 nM.
In the case of `O=C(NCCCCN1CCN(c2csc3cc(C(F)(F)F)ccc23)CC1)c1cccs1` [compound 811708], under “read-out: D3K1”, the Ki is 5.77 nM.
Turning to `O=C(NCCCCN1CCN(c2c(Cl)sc3cc(F)ccc23)CC1)C(F)(F)F` [compound 814854], the Ki (read-out: D3K1) was found to be 35 nM.
`CCOc1ccc(C(=O)NCCCCN2CCN(c3c(Cl)sc4cc(F)ccc34)CC2)cc1` [compound 815052]: for the setting “read-out: D3K1”, the Ki was 5.4 nM.
For the compound `O=C(NCCCCN1CCN(c2c(Cl)sc3cc(F)ccc23)CC1)c1ccc(F)cc1F` [compound 815053], the Ki (read-out: D3K1) was determined as 5.8 nM.
As to `O=C(NCCCCN1CCN(c2c(Cl)sc3cc(F)ccc23)CC1)c1c(F)cc(F)cc1F` [compound 815054], the Ki (read-out: D3K1) stood at 7.7 nM.
With `O=C(NCCCCN1CCN(c2c(Cl)sc3cc(F)ccc23)CC1)c1ccc2c(c1)OCO2` [compound 815055], where the note is “read-out: D3K1”, the Ki is 3.5 nM.
In the case of `O=C(NCCCCN1CCN(c2c(Cl)sc3cc(F)ccc23)CC1)c1sc2ccccc2c1Cl` [compound 815057], the Ki (read-out: D3K1) amounted to 12.3 nM.
On the same count and under the same terms, the result for `O=C(NCCCCN1CCN(c2c(Cl)sc3cc(F)ccc23)CC1)c1cccs1` [compound 815058] reads 4.3 nM; that for `O=C(NCCCCN1CCN(c2c(Cl)sc3cc(F)ccc23)CC1)c1ccc(-c2ccccc2)cc1` [compound 815059], 13.8 nM.
On to `O=C(NCCCCN1CCN(c2c(Cl)sc3cc(F)ccc23)CC1)c1ccc(Cl)cc1` [compound 815060], for which the Ki (read-out: D3K1) stood at 6.2 nM.
On the same count and under the same terms, to `O=C(NCCCCN1CCN(c2c(Cl)sc3cc(F)ccc23)CC1)c1ccc([N+](=O)[O-])cc1` [compound 815061] belongs 3.6 nM; to `COc1ccc(C(=O)NCCCCN2CCN(c3c(Cl)sc4cc(F)ccc34)CC2)cc1OC` [compound 815062], 4.1 nM; to `O=C(NCCCCN1CCN(c2c(Cl)sc3cc(F)ccc23)CC1)c1ccc(Br)cc1` [compound 815063], 6.3 nM.
`O=C(NCCCCN1CCN(c2c(Cl)sc3cc(F)ccc23)CC1)c1cc2ccccc2s1` [compound 815064]: the Ki (read-out: D3K1) is 1.9 nM.
For the compound `O=C(NCCCCN1CCN(c2c(Cl)sc3cc(F)ccc23)CC1)c1ccccc1C(F)(F)F` [compound 815065], the Ki (read-out: D3K1) was 43.8 nM.
Same read-out and setting: to `COc1ccccc1C(=O)NCCCCN1CCN(c2c(Cl)sc3cc(F)ccc23)CC1` [compound 815066] belongs 28.7 nM; to `O=C(NCCCCN1CCN(c2c(Cl)sc3cc(F)ccc23)CC1)c1ccc(C(F)(F)F)cc1` [compound 815067], 20.1 nM; to `O=C(NCCCCN1CCN(c2c(Cl)sc3cc(F)ccc23)CC1)c1ccco1` [compound 815068], 4.9 nM.
With `O=C(NCCCCN1CCN(c2c(Cl)sc3cc(F)ccc23)CC1)c1c(F)cccc1F` [compound 815069], the Ki (read-out: D3K1) was determined as 15 nM.
The same measure, in the same setting: to `O=C(NCCCCN1CCN(c2c(Cl)sc3cc(F)ccc23)CC1)c1ccccc1Br` [compound 815070] belongs 34.4 nM.
The same measure, in the same setting: to `O=C(NCCCCN1CCN(c2c(Cl)sc3cc(F)ccc23)CC1)C1CCCC1` [compound 815071] belongs 7.2 nM.
For the compound `O=C(NCCCCN1CCC(c2noc3ccsc23)CC1)c1cc2ccccc2s1` [compound 815147], the Ki under setting [1] stood at 371 nM.
Same read-out and setting: the result for `O=C(NCCCCN1CCC(c2noc3ccsc23)CC1)c1ccc(Cl)cc1` [compound 815151] reads 136 nM; that for `CCOc1ccc(C(=O)NCCCCN2CCC(c3noc4ccsc34)CC2)cc1` [compound 815152], 158 nM.
Take `COc1cc(OC)cc(C(=O)NCCCCN2CCN(c3csc4cc(C(F)(F)F)ccc34)CC2)c1` [compound 815543]: the Ki (read-out: D3K1) is 32 nM.
On the same count and under the same terms, the result for `O=C(NCCCCN1CCN(c2csc3cc(C(F)(F)F)ccc23)CC1)c1ccc(-c2ccccc2)cc1` [compound 815547] reads 4.4 nM; that for `O=C(NCCCCN1CCN(c2csc3cc(C(F)(F)F)ccc23)CC1)c1ccc([N+](=O)[O-])cc1` [compound 815549], 2.1 nM.
For `COc1ccc(C(=O)NCCCCN2CCN(c3csc4cc(C(F)(F)F)ccc34)CC2)cc1OC` [compound 815550], the Ki (read-out: D3K1) came out at 6.9 nM.
The same measure, in the same setting: to `CCCCCOc1ccc(C(=O)NCCCCN2CCN(c3csc4cc(C(F)(F)F)ccc34)CC2)cc1` [compound 815552] belongs 140 nM.
On the same count and under the same terms, to `O=C(NCCCCN1CCN(c2csc3cc(C(F)(F)F)ccc23)CC1)c1ccccc1C(F)(F)F` [compound 815553] belongs 41 nM.
On to `O=C(NCCCCN1CCN(c2csc3cc(C(F)(F)F)ccc23)CC1)c1ccccc1Br` [compound 815558], for which, for the setting “read-out: D3K1”, the Ki stood at 23 nM.
Turning to `O=C(NCCCCN1CCN(c2csc3cc(C(F)(F)F)ccc23)CC1)C1CCCC1` [compound 815559], the Ki (read-out: D3K1) was 13.5 nM.
With `CCOc1ccc(C(=O)NCCCCN2CCN(c3c(Cl)sc4cc(C(F)(F)F)ccc34)CC2)cc1` [compound 815560], where the note is “read-out: D3K1”, the Ki came out at 22 nM.
Still for that read-out and setting: the result for `O=C(NCCCCN1CCN(c2c(Cl)sc3cc(C(F)(F)F)ccc23)CC1)c1ccc(F)cc1F` [compound 815561] reads 41 nM.
Still for that read-out and setting: to `O=C(NCCCCN1CCN(c2c(Cl)sc3cc(C(F)(F)F)ccc23)CC1)c1ccc2c(c1)OCO2` [compound 815563] belongs 21 nM; to `CCCCOc1ccc(C(=O)NCCCCN2CCN(c3c(Cl)sc4cc(C(F)(F)F)ccc34)CC2)cc1` [compound 815564], 159 nM.
On the same count and under the same terms, to `O=C(NCCCCN1CCN(c2c(Cl)sc3cc(C(F)(F)F)ccc23)CC1)c1cccs1` [compound 815566] belongs 32 nM; to `O=C(NCCCCN1CCN(c2c(Cl)sc3cc(C(F)(F)F)ccc23)CC1)c1ccc(Cl)cc1` [compound 815568], 30 nM; to `O=C(NCCCCN1CCN(c2c(Cl)sc3cc(C(F)(F)F)ccc23)CC1)c1ccc([N+](=O)[O-])cc1` [compound 815569], 13 nM.
Take `COc1ccc(C(=O)NCCCCN2CCN(c3c(Cl)sc4cc(C(F)(F)F)ccc34)CC2)cc1OC` [compound 815570]: the Ki (read-out: D3K1) was found to be 30 nM.
The same measure, in the same setting: to `O=C(NCCCCN1CCN(c2c(Cl)sc3cc(C(F)(F)F)ccc23)CC1)c1ccc(Br)cc1` [compound 815571] belongs 34.2 nM; to `O=C(NCCCCN1CCN(c2c(Cl)sc3cc(C(F)(F)F)ccc23)CC1)c1ccccc1C(F)(F)F` [compound 815573], 35 nM; to `COc1ccccc1C(=O)NCCCCN1CCN(c2c(Cl)sc3cc(C(F)(F)F)ccc23)CC1` [compound 815574], 53 nM.
`O=C(NCCCCN1CCN(c2c(Cl)sc3cc(C(F)(F)F)ccc23)CC1)c1ccc(C(F)(F)F)cc1` [compound 815575]: the Ki (read-out: D3K1) worked out at 50 nM.
The same measure, in the same setting: the result for `O=C(NCCCCN1CCN(c2c(Cl)sc3cc(C(F)(F)F)ccc23)CC1)c1ccco1` [compound 815576] reads 63 nM.
With `O=C(NCCCCN1CCN(c2c(Cl)sc3cc(C(F)(F)F)ccc23)CC1)c1c(F)cccc1F` [compound 815577], the Ki (read-out: D3K1) came out at 95 nM.
On the same count and under the same terms, to `O=C(NCCCCN1CCN(c2c(Cl)sc3cc(C(F)(F)F)ccc23)CC1)c1ccccc1Br` [compound 815578] belongs 117 nM.
Still for that read-out and setting: the result for `O=C(NCCCCN1CCN(c2c(Cl)sc3cc(C(F)(F)F)ccc23)CC1)C1CCCC1` [compound 815579] reads 104 nM.
In the case of `COc1ccc(C(=O)N[C@@H](CO)CCCN2CCN(c3csc4cc(C(F)(F)F)ccc34)CC2)cc1OC` [compound 815665], the Ki is, setting by setting: (read-out: D3K1) 163 nM; under setting [2], 163 nM.
On to `CC(=O)Nc1ccc(C(=O)N[C@@H](CO)CCCN2CCN(c3csc4cc(C(F)(F)F)ccc34)CC2)cc1` [compound 815667], for which the Ki runs as follows: (read-out: D3K1) 203 nM; under setting [2], 203 nM.
With `COc1ccc(C(=O)N[C@@H](CO)CCCN2CCN(c3csc4cc(C(F)(F)F)ccc34)CC2)cc1` [compound 815668], the Ki by setting is: (read-out: D3K1) 150 nM; under setting [2], 150 nM.
With `O=C(N[C@@H](CO)CCCN1CCN(c2csc3cc(C(F)(F)F)ccc23)CC1)c1ccc(-c2ccccc2)cc1` [compound 815670], the Ki came out at 192 nM (read-out: D3K1) and 192 nM under setting [2].
In the case of `Cc1ccc(C(=O)N[C@@H](CO)CCCN2CCN(c3csc4cc(C(F)(F)F)ccc34)CC2)cc1` [compound 815671], the Ki is, setting by setting: (read-out: D3K1) 309 nM; under setting [2], 309 nM.
With `O=C(N[C@@H](CO)CCCN1CCN(c2csc3cc(C(F)(F)F)ccc23)CC1)c1cc2ccccc2[nH]1` [compound 815674], the Ki was found to be 314 nM (Table 2, read-out: D3K1); 314 nM (read-out: D3K1); 314 nM under setting [2].
On to `O=C(N[C@@H](CO)CCCN1CCN(c2csc3cc(C(F)(F)F)ccc23)CC1)c1ccc2[nH]ccc2c1` [compound 815676], for which the Ki amounted to 224 nM (Table 2, read-out: D3K1); 224 nM (read-out: D3K1); 224 nM under setting [2].
For the compound `O=C(N[C@@H](CO)CCCN1CCN(c2csc3cc(C(F)(F)F)ccc23)CC1)c1cc2ccccc2o1` [compound 815677], the Ki by setting is: (Table 2, read-out: D3K1) 297 nM; (read-out: D3K1) 297 nM; under setting [2], 297 nM.
Consider `O=C(N[C@@H](CO)CCCN1CCN(c2csc3cc(C(F)(F)F)ccc23)CC1)c1ccc(Br)cc1` [compound 815679], for which the Ki by setting is: (Table 2, read-out: D3K1) 129 nM; (read-out: D3K1) 129 nM; under setting [2], 129 nM.

These data come from US7550469B2, “Heterocyclic amide derivatives and their use as dopamine D3 receptor ligands” (Aventis Pharmaceuticals Inc., priority 2001, dated 2009).
